molecular target: T1, GLS1 (purified recombinant human GAC) (Homo sapiens, UniProt O94925); experiment: GLS1 enzymatic activity assay (dual-coupled, Amplex UltraRed/resorufin); assay type: biochemical
T1 sequence (O94925 55-598 isoform O94925-3 limits assumed): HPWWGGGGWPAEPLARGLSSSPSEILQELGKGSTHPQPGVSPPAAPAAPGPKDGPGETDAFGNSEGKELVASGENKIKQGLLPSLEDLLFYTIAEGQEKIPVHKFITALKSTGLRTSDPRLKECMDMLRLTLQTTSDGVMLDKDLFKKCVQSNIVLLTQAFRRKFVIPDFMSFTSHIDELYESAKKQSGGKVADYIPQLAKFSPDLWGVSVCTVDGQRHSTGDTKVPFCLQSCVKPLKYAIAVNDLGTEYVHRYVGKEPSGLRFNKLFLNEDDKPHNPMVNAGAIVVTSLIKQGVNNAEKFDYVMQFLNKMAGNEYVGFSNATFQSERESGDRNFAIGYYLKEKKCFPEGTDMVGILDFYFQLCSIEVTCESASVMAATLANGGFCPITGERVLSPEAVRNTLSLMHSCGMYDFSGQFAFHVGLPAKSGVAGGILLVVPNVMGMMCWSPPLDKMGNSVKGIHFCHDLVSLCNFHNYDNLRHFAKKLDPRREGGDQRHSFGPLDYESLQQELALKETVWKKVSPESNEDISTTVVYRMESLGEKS
Experimental: GLS1 Enzymatic Activity Assay
The inhibition of purified recombinant human GAC by varying concentrations of inhibitors is assessed via a dual-coupled enzymatic assay. The glutamate produced by the glutaminase reaction is used by glutamate oxidase to produce α-ketoglutarate, ammonia, and hydrogen peroxide, with this hydrogen peroxide subsequently being used by horseradish peroxidase to produce resorufin in the presence of Amplex UltraRed. The assay buffer consisted of 50 mM Hepes (pH 7.4), 0.25 mM EDTA and 0.1 mM Triton X-100. GAC was incubated with potassium phosphate (10 minutes at room temperature) prior to incubation with inhibitor (10 minutes at room temperature). The final reaction conditions were as follows: 2 nM GAC, 50 mM potassium phosphate, 100 mU/mL glutamate oxidase (Sigma), 1 mM glutamine (Sigma), 100 mU/mL horseradish peroxidase (Sigma), 75 μM Amplex UltraRed (Life Technologies), and 1% (v/v) DMSO. The production of resorufin was monitored on a Perkin Elmer Envision plate reader (excitation 530 nm, emission 590 nm) either in a kinetics or endpoint mode (at 20 minutes). IC50 values were calculated using a four-parameter logistic curve fit.

SMILES | IC50
CC(C)CS(=O)(=O)Nc1ccn(CCCCc2ccc(NC(=O)Cc3ccccc3)nn2)c(=O)n1 [Example 26, N-(6-(4-(4-(2-methylpropylsulfonamido)-2-oxopyrimidin-1(2H)-yl)butyl)pyridazin-3-yl)-2-phenylacetamide] | 0.5 to 5 µM
O=C(Cc1ccccn1)Nc1ccn(CCCCc2nnc(C(=O)NCc3ccccn3)s2)c(=O)c1 [Example 448, 5-(4-{2-oxo-4-[2-(pyridin-2-yl)acetamido]-1,2-dihydropyridin-1-yl}butyl)-N-(pyridin-2-ylmethyl)-1,3,4-thiadiazole-2-carboxamide] | 0.5 to 5 µM
Nc1ccn(CCCCc2ccc(NC(=O)Cc3ccccc3)nn2)c(=O)n1 [Example 21, N-(6-(4-(4-amino-2-oxopyrimidin-1(2H)-yl)butyl)pyridazin-3-yl)-2-phenylacetamide] | 0.5 to 5 µM
Nc1nnc(CCCCn2ccc(NC(=O)Cc3ccccc3)cc2=O)s1 [Example 30, N-{1-[4-(5-amino-1,3,4-thiadiazol-2-yl)butyl]-2-oxo-1,2-dihydropyridin-4-yl}-2-phenylacetamide] | 0.5 to 5 µM
O=C(Cc1cccc(OC(F)(F)F)c1)Nc1ccn(CCCCn2cc(C(=O)NCc3ccccc3)nn2)c(=O)n1 [Example 115, N-benzyl-1-[4-(2-oxo-4-{2-[3-(trifluoromethoxy)phenyl]acetamido}-1,2-dihydropyrimidin-1-yl)butyl]-1H-1,2,3-triazole-4-carboxamide] | 0.5 to 5 µM
O=C(Cc1ccccn1)Nc1ccn(CCCCc2nnc(C(=O)NCc3ncccc3F)s2)c(=O)c1 [Example 457, N-[(3-fluoropyridin-2-yl)methyl]-5-(4-{2-oxo-4-[2-(pyridin-2-yl)acetamido]-1,2-dihydropyridin-1-yl}butyl)-1,3,4-thiadiazole-2-carboxamide] | 0.5 to 5 µM
CCN1CCC(CC(=O)Nc2ccn(CCCCn3cc(C(=O)NCc4cccc(OC(F)(F)F)c4)nn3)c(=O)c2)CC1 [Example 207, 1-(4-{4-[2-(1-ethylpiperidin-4-yl)acetamido]-2-oxo-1,2-dihydropyridin-1-yl}butyl)-N-{[3-(trifluoromethoxy)phenyl]methyl}-1H-1,2,3-triazole-4-carboxamide] | 0.5 to 5 µM
Cc1ccc(CNC(=O)c2nnc(CCCCn3ccc(NC(=O)Cc4ccccn4)cc3=O)s2)cn1 [Example 444, N-[(6-methylpyridin-3-yl)methyl]-5-(4-{2-oxo-4-[2-(pyridin-2-yl)acetamido]-1,2-dihydropyridin-1-yl}butyl)-1,3,4-thiadiazole-2-carboxamide] | 0.1 to 0.5 µM
COCCCNc1ccn(CCCCc2ccc(NC(=O)Cc3ccccc3)nn2)c(=O)n1 [Example 25, N-(6-(4-(4-((3-methoxypropyl)amino)-2-oxopyrimidin-1(2H)-yl)butyl)pyridazin-3-yl)-2-phenylacetamide] | 0.5 to 5 µM
O=C(Cc1ccccc1)Nc1ccn(CCCn2cc(C(=O)NCc3cccc(OC(F)(F)F)c3)nn2)c(=O)c1 [Example 436, 1-{3-[2-oxo-4-(2-phenylacetamido)-1,2-dihydropyridin-1-yl]propyl}-N-{[3-(trifluoromethoxy)phenyl]methyl}-1H-1,2,3-triazole-4-carboxamide] | > 5 µM
COCCNC(=O)c1nnc(CCCCn2ccc(NC(=O)Cc3ccccc3)cc2=O)s1 [Example 449, N-(2-methoxyethyl)-5-{4-[2-oxo-4-(2-phenylacetamido)-1,2-dihydropyridin-1-yl]butyl}-1,3,4-thiadiazole-2-carboxamide] | 0.5 to 5 µM
COCCNC(=O)c1nnc(CCCCn2ccc(NC(=O)Cc3ccccn3)cc2=O)s1 [Example 452, N-(2-methoxyethyl)-5-(4-{2-oxo-4-[2-(pyridin-2-yl)acetamido]-1,2-dihydropyridin-1-yl]butyl)-1,3,4-thiadiazole-2-carboxamide] | 0.5 to 5 µM
CC(C)(C)OC(=O)NCc1cn(CCCCn2ccc(NC(=O)Cc3ccccc3)cc2=O)nn1 [Example 9, tert-Butyl N-[(1-{4-[2-oxo-4-(2-phenylacetamido)-1,2-dihydropyridin-1-yl]butyl}-1H-1,2,3-triazol-4-yl)methyl]carbamate] | 0.5 to 5 µM
O=C(NCc1ccccc1)c1ccn(CCCn2cc(C(=O)NCc3cccc(OC(F)(F)F)c3)nn2)c(=O)c1 [Example 437, N-benzyl-2-oxo-1-{3-[4-({[3-(trifluoromethoxy)phenyl]methyl}carbamoyl)-1H-1,2,3-triazol-1-yl]propyl}-1,2-dihydropyridine-4-carboxamide] | > 5 µM

Further lines, results first:

IC50 | SMILES
0.1 to 0.5 µM | CN1CCN(CC(=O)Nc2ccn(CCC(F)Cn3cc(C(=O)NCc4cccc(OC(F)(F)F)c4)nn3)c(=O)c2)CC1 (stereo not shown) [Example 254, 1-(2-fluoro-4-{4-[2-(4-methylpiperazin-1-yl)acetamido]-2-oxo-1,2-dihydropyridin-1-yl}butyl)-N-{[3-(trifluoromethoxy)phenyl]methyl}-1H-1,2,3-triazole-4-carboxamide]
0.1 to 0.5 µM | O=C1CN(CC(=O)Nc2ccn(CCC(F)Cn3cc(C(=O)NCc4cccc(OC(F)(F)F)c4)nn3)c(=O)c2)CCN1 (stereo not shown) [Example 230, 1-(2-fluoro-4-{2-oxo-4-[2-(3-oxopiperazin-1-yl)acetamido]-1,2-dihydropyridin-1-yl}butyl)-N-{[3-(trifluoromethoxy)phenyl]methyl}-1H-1,2,3-triazole-4-carboxamide]
0.5 to 5 µM | CC(=O)Nc1ccn(CCCCn2cc(C(=O)NCc3cccc(C(F)(F)F)c3)nn2)c(=O)c1 [Example 142, 1-[4-(4-acetamido-2-oxo-1,2-dihydropyridin-1-yl)butyl]-N-{[3-(trifluoromethyl)phenyl]methyl}-1H-1,2,3-triazole-4-carboxamide]
0.5 to 5 µM | Nc1ccn(CCCCn2cc(C(=O)NCc3cccc(C(F)(F)F)c3)nn2)c(=O)c1 [Example 140, 1-[4-(4-amino-2-oxo-1,2-dihydropyridin-1-yl)butyl]-N-{[3-(trifluoromethyl)phenyl]methyl}-1H-1,2,3-triazole-4-carboxamide]
0.5 to 5 µM | C[C@H](NC(=O)c1ccn(CCCCn2cc(C(=O)NCc3cccc(OC(F)(F)F)c3)nn2)c(=O)c1)C(N)=O [Example 138, 1-[4-(4-{[(1S)-1-carbamoylethyl]carbamoyl}-2-oxo-1,2-dihydropyridin-1-yl)butyl]-N-{[3-(trifluoromethoxy)phenyl]methyl}-1H-1,2,3-triazole-4-carboxamide]
> 5 µM | Nc1ccn(CCC(F)Cn2cc(C(=O)NCc3cccc(C(F)(F)F)n3)nn2)c(=O)c1F (stereo not shown) [Example 321, 1-[4-(4-amino-3-fluoro-2-oxo-1,2-dihydropyridin-1-yl)-2-fluorobutyl]-N-{[6-(trifluoromethyl)pyridin-2-yl]methyl}-1H-1,2,3-triazole-4-carboxamide]
0.1 to 0.5 µM | CCN1CCC(CC(=O)Nc2ccn(CCC(F)Cn3cc(C(=O)NCc4cccc(OC(F)(F)F)c4)nn3)c(=O)c2)CC1 (stereo not shown) [Example 218, 1-(4-{4-[2-(1-ethylpiperidin-4-yl)acetamido]-2-oxo-1,2-dihydropyridin-1-yl}-2-fluorobutyl)-N-{[3-(trifluoromethoxy)phenyl]methyl}-1H-1,2,3-triazole-4-carboxamide]
0.5 to 5 µM | C[C@@H](NC(=O)c1ccn(CCCCn2cc(C(=O)NCc3cccc(OC(F)(F)F)c3)nn2)c(=O)c1)C(N)=O [Example 137, 1-[4-(4-{[(1R)-1-carbamoylethyl]carbamoyl}-2-oxo-1,2-dihydropyridin-1-yl)butyl]-N-{[3-(trifluoromethoxy)phenyl]methyl}-1H-1,2,3-triazole-4-carboxamide]
> 5 µM | Nc1ccn(CCC(F)Cn2cc(C(=O)NCc3cc(C(F)(F)F)ccn3)nn2)c(=O)c1F (stereo not shown) [Example 322, 1-[4-(4-amino-3-fluoro-2-oxo-1,2-dihydropyridin-1-yl)-2-fluorobutyl]-N-{[4-(trifluoromethyl)pyridin-2-yl]methyl}-1H-1,2,3-triazole-4-carboxamide]
0.1 to 0.5 µM | CC(C)(C)OC(=O)Nc1ccn(CCC(F)Cn2cc(C(=O)NCc3cccc(C(F)(F)F)n3)nn2)c(=O)c1F (stereo not shown) [Example 319, tert-butyl N-(3-fluoro-1-{3-fluoro-4-[4-({[6-(trifluoromethyl)pyridin-2-yl]methyl}carbamoyl)-1H-1,2,3-triazol-1-yl]butyl}-2-oxo-1,2-dihydropyridin-4-yl)carbamate]
0.5 to 5 µM | CCOC(=O)c1cn(CC(F)CCn2ccc(NC(=O)CC3CCCCC3)c(F)c2=O)nn1 (stereo not shown) [Example 225, ethyl 1-{4-[4-(2-cyclohexylacetamido)-3-fluoro-2-oxo-1,2-dihydropyridin-1-yl]-2-fluorobutyl}-1H-1,2,3-triazole-4-carboxylate]

Source: patent US20160002204A1 (Board of Regents, The University of Texas System, priority 2014, published 2016)
